Experimental findings from US20100029657A1, “Bridged, Bicyclic Heterocyclic or Spiro Bicyclic Heterocyclic Derivatives of Pyrazolo[1, 5-A]Pyrimidines, Methods for Preparation and Uses Thereof” (Wyeth, priority 2008, published 2010) are described below.

SMILES strings stand for the structures. Counter-ions that a name gives are not always drawn. Like-named read-outs stand apart in the source and are kept apart here.

For orientation: IC50 means the concentration that gives 50% inhibition.

For this test, the target named is T1, Flag/GST-tagged recombinant human B-Raf (Homo sapiens, UniProt P15056).
T1 construct: Flag; GST; made in house; host or cells: Sf9 insect cells (B-Raf); E. coli (MEK1-GST)
T1 sequence (P15056 whole entry): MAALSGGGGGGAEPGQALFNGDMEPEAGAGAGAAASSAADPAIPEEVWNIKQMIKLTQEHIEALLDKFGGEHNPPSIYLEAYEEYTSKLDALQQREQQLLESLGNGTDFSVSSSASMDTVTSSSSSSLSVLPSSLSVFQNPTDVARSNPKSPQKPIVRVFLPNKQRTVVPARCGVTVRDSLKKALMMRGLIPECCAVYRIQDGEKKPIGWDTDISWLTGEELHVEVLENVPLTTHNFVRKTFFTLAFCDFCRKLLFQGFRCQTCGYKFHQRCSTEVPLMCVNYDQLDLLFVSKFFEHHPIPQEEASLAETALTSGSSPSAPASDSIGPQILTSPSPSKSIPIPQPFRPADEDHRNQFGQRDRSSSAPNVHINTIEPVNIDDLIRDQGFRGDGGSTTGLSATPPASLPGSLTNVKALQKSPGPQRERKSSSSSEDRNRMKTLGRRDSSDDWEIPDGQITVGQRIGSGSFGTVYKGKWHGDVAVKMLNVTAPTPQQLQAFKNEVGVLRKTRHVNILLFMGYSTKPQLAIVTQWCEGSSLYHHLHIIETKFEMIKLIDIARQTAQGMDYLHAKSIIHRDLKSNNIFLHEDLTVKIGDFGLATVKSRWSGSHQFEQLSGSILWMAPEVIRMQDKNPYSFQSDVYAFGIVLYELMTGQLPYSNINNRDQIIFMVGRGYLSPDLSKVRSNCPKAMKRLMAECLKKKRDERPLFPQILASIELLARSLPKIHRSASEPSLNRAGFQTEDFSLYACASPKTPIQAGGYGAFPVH
The experiment in a line: B-Raf kinase assay (phosphorylation of GST-MEK1, phospho-MEK1 antibody/Europium detection). The test is classed as biochemical. Particulars: B-Raf IC50 Data for compounds of Formula A. In outline: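 Active B-Raf (0.2 nM) phosphorylates GST-MEK1 in 20 mM MOPS pH 7.2 buffer with DTT, vanadate and 0.01% Triton X-100. The Mg/ATP cocktail (200 μM ATP, 40 mM MgCl2) is added, then incubation runs 45 min at RT. Product is captured on anti-GST plates and detected by anti-phospho-MEK1 plus Europium-anti-rabbit fluorescence, giving % inhibition per concentration.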

Take `CCOC(=O)N1C2CCC1CC(c1ccnc3c(-c4ccc(Cl)c5[nH]ncc45)c(-c4ccncc4)nn13)C2` (centres unmarked) [Example 75, Ethyl 3-[3-(7-chloro-1H-indazol-4-yl)-2-pyridin-4-ylpyrazolo[1,5-a]pyrimidin-7-yl]-8-azabicyclo[3.2.1]octane-8-carboxylate]: the IC50 (Mean IC50 (uM)) stood at 0.0003 µM.

Take `CCOC(=O)N1C2CCC1CC(c1ccnc3c(-c4ccc(C(F)(F)F)c5[nH]ncc45)c(-c4ccncc4)nn13)C2` (centres unmarked) [Example 76, Ethyl 3-{2-pyridin-4-yl-3-[7-(trifluoromethyl)-1H-indazol-4-yl]pyrazolo[1,5-a]pyrimidin-7-yl}-8-azabicyclo[3.2.1]octane-8-carboxylate]: under “Mean IC50 (uM)”, the IC50 stood at 0.004 µM. On to `CCN1C2CCC1CC(c1ccnc3c(-c4ccc(C)c5[nH]ncc45)c(-c4ccncc4)nn13)C2` (centres unmarked) [Example 77, 7-(8-ethyl-8-azabicyclo[3.2.1]oct-3-yl)-3-(7-methyl-1H-indazol-4-yl)-2-pyridin-4-ylpyrazolo[1,5-a]pyrimidine, trifluoroacetate salt], for which, where the note is “read-out: Mean IC50”, the IC50 worked out at 0.017 µM.

As to `CCOC(=O)N1C2CCC1CC(c1ccnc3c(-c4ccc(C)c5[nH]ncc45)c(-c4ccncc4)nn13)C2` (centres unmarked) [Example 78, Ethyl 3-[3-(7-Methyl-1H-indazol-4-yl)-2-pyridin-4-ylpyrazolo[1,5-a]pyrimidin-7-yl]-8-azabicyclo[3.2.1]octane-8-carboxylate, trifuoroacetate salt], the IC50 (read-out: Mean IC50) is 0.0007 µM. Same read-out and setting: the figure for `CCN1C2CCC1CC(c1ccnc3c(-c4ccc(Cl)c5[nH]ncc45)c(-c4ccncc4)nn13)C2` (centres unmarked) [Example 79, 3-(7-Chloro-1H-indazol-4-yl)-7-(8-ethyl-8-azabicyclo[3.2.1]oct-3-yl)-2-pyridin-4-ylpyrazolo[1,5-a]pyrimidin, trifluoroacetate salt] is 0.004 µM; for `CCN1C2CCC1CC(c1ccnc3c(-c4ccc(C(F)(F)F)c5[nH]ncc45)c(-c4ccncc4)nn13)C2` (centres unmarked) [Example 80, 7-(8-Ethyl-8-azabicyclo[3.2.1]oct-3-yl)-2-pyridin-4-yl-3-[7-(trifluoromethyl)-1H-indazol-4-yl]pyrazolo[1,5-a]pyrimidine, trifluoroacetate salt] it is 0.048 µM. Same read-out and setting: the figure for `CCOC(=O)N1C2CCC1CC(c1ccnc3c(-c4ccc(F)c5[nH]ncc45)c(-c4ccncc4)nn13)C2` (centres unmarked) [Example 81, Ethyl 3-[3-(7-fluoro-1H-indazol-4-yl)-2-pyridin-4-ylpyrazolo[1,5-a]pyrimidin-7-yl]-8-azabicyclo[3.2.1]octane-8-carboxylate, trifluoroacetate salt] is 0.0004 µM; for `CCN1C2CCC1CC(c1ccnc3c(-c4cc(F)c(Cl)c5[nH]ncc45)c(-c4ccncc4)nn13)C2` (centres unmarked) [Example 82, 3-(7-Chloro-6-fluoro-1H-indazol-4-yl)-7-(8-ethyl-8-azabicyclo[3.2.1]oct-3-yl)-2-pyridin-4-ylpyrazolo[1,5-a]pyrimidine, trifluoro acetate salt] it is 0.002 µM; for `CCOC(=O)N1C2CCC1CC(c1ccnc3c(-c4ccc5cc[nH]c5c4)c(-c4ccncc4)nn13)C2` (centres unmarked) [Example 85, Ethyl 3-[3-(1H-indol-6-yl)-2-pyridin-4-ylpyrazolo[1,5-a]pyrimidin-7-yl]-8-azabicyclo[3.2.1]octane-8-carboxylate] it is 0.036 µM. Still for that read-out and setting: the figure for `CCN1C2CCC1CC(c1ccnc3c(-c4ccc5cc[nH]c5c4)c(-c4ccncc4)nn13)C2` (centres unmarked) [Example 87, 7-(8-Ethyl-8-azabicyclo[3.2.1]oct-3-yl)-3-(1H-indol-6-yl)-2-pyridin-4-ylpyrazolo[1,5-a]pyrimidine] is 0.032 µM. Regarding `CCN1C2CCC1CC(c1ccnc3c(-c4cccc5[nH]ncc45)c(-c4ccncc4)nn13)C2` (centres unmarked) [Example 90, 7-(8-Ethyl-8-azabicyclo[3.2.1]octan-3-yl)-3-(1H-indazol-4-yl)-2-(pyridin-4-yl)pyrazolo[1,5-a]pyrimidine], the IC50 (read-out: Mean IC50) came out at 0.046 µM.

In the case of `CCOC(=O)N1C2CCC1CC(c1ccnc3c(-c4cccc(-c5nnco5)c4)c(-c4ccncc4)nn13)C2` (centres unmarked) [Example 91, Ethyl 3-(3-(3-(1,3,4-oxadiazol-2-yl)phenyl)-2-(pyridin-4-yl)pyrazolo[1,5-a]pyrimidin-7-yl)-8-azabicyclo[3.2.1]octane-8-carboxylate], the IC50 (read-out: Mean IC50) is 0.162 µM. Consider `Fc1cc(N2C[C@@H]3C[C@H]2CN3)ccc1-c1ccnc2c(-c3cccc4[nH]ncc34)c(-c3ccncc3)nn12` [Example 93, 7-{4-[(1S,4S)-2,5-diazabicyclo[2.2.1]hept-2-yl]-2-fluorophenyl}-3-(1H-indazol-4-yl)-2-pyridin-4-ylpyrazolo[1,5-a]pyrimidine], for which the IC50 (read-out: Mean IC50) is less than 0.0003 µM. As to `CN1C[C@@H]2C[C@H]1CN2c1ccc(-c2ccnc3c(-c4cccc5[nH]ncc45)c(-c4ccncc4)nn23)c(F)c1` [Example 94, 7-{2-Fluoro-4-[(1S,4S)-5-methyl-2,5-diazabicyclo[2.2.1]hept-2-yl]phenyl}-3-(1H-indazol-4-yl)-2-pyridin-4-yl pyrazolo[1,5-a]pyrimidine], the IC50 (read-out: Mean IC50) worked out at 0.0001 µM. Same read-out and setting: the value for `C[N+]1([O-])C[C@@H]2C[C@H]1CN2c1ccc(-c2ccnc3c(-c4cccc5[nH]ncc45)c(-c4ccncc4)nn23)c(F)c1` (stereo partly drawn) [Example 95, 7-{2-fluoro-4-[(1S,4S)-5-methyl-5-oxido-2,5-diazabicyclo[2.2.1]hept-2-yl]phenyl}-3-(1H-indazol-4-yl)-2-pyridin-4-ylpyrazolo[1,5-a]pyrimidine] was 0.00059 µM. For the compound `Clc1cc(N2C[C@@H]3C[C@H]2CN3)ccc1-c1ccnc2c(-c3cccc4[nH]ncc34)c(-c3ccncc3)nn12` [Example 97, 7-[2-Chloro-4-((1S,4S)-2,5-diaza-bicyclo[2.2.1]hept-2-yl)-phenyl]-3-(1H-indazol-4-yl)-2-pyridin-4-yl-pyrazolo[1,5-a]pyrimidine bis-hydrochloride salt], where the note is “read-out: Mean IC50”, the IC50 was less than 0.0003 µM. Still for that read-out and setting: the figure for `CN1C[C@@H]2C[C@H]1CN2c1ccc(-c2ccnc3c(-c4cccc5[nH]ncc45)c(-c4ccncc4)nn23)c(Cl)c1` [Example 98, 7-[2-Chloro-4-((1S,4S)-5-methyl-2,5-diaza-bicyclo[2.2.1]hept-2-yl)-phenyl]-3-(1H-indazol-4-yl)-2-pyridin-4-yl-pyrazolo[1,5-a]pyrimidine] is less than 0.0003 µM; for `CC(C)(C)OC(=O)N1C[C@@H]2C[C@H]1CN2c1cc(F)c(-c2ccnc3c(-c4cccc5[nH]ncc45)c(-c4ccncc4)nn23)c(F)c1` [Example 99, tert-butyl(1S,4S)-5-{3,5-difluoro-4-[3-(1H-indazol-4-yl)-2-pyridin-4-ylpyrazolo[1,5-a]pyrimidin-7-yl]phenyl}-2,5-diazabicyclo[2.2.1]heptane-2-carboxylate] it is 0.0016 µM.

On to `Fc1cc(N2C[C@@H]3C[C@H]2CN3)cc(F)c1-c1ccnc2c(-c3cccc4[nH]ncc34)c(-c3ccncc3)nn12` [Example 100, 7-(4-((1S,4S)-2,5-diazabicyclo[2.2.1]heptan-2-yl)-2,6-difluorophenyl)-3-(1H-indazol-4-yl)-2-(pyridin-4-yl)pyrazolo[1,5-a]pyrimidine], for which the IC50 (read-out: Mean IC50) is less than 0.0002 µM. On the same count and under the same terms, the value for `CN1C[C@@H]2C[C@H]1CN2c1cc(F)c(-c2ccnc3c(-c4cccc5[nH]ncc45)c(-c4ccncc4)nn23)c(F)c1` [Example 101, 7-{2,6-difluoro-4-[(1S,4S)-5-methyl-2,5-diazabicyclo[2.2.1]hept-2-yl]phenyl}-3-(1H-indazol-4-yl)-2-pyridin-4-yl pyrazolo[1,5-a]pyrimidine] was less than 0.0001 µM; that for `CC(C)(C)OC(=O)N1C[C@@H]2C[C@H]1CN2c1ccc(-c2ccnc3c(-c4ccc(F)c5[nH]ncc45)c(-c4ccncc4)nn23)cc1` [Example 102, tert-Butyl(1S,4S)-5-{4-[3-(7-fluoro-1H-indazol-4-yl)-2-pyridin-4-ylpyrazolo[1,5-a]pyrimidin-7-yl]phenyl}-2,5-diazabicyclo[2.2.1]heptane-2-carboxylate] was 0.00204 µM. In the case of `Fc1ccc(-c2c(-c3ccncc3)nn3c(-c4ccc(N5C[C@@H]6C[C@H]5CN6)cc4)ccnc23)c2cn[nH]c12` [Example 103, 7-[4-(2,5-Diaza-bicyclo[2.2.1]hept-2-yl)-phenyl]-3-(7-fluoro-1H-indazol-4-yl)-2-pyridin-4-yl-pyrazolo[1,5-a]pyrimidine], where the note is “read-out: Mean IC50”, the IC50 is less than 0.0003 µM. With `CN1C[C@@H]2C[C@H]1CN2c1ccc(-c2ccnc3c(-c4ccc(F)c5[nH]ncc45)c(-c4ccncc4)nn23)cc1` [Example 104, 3-(7-fluoro-1H-indazol-4-yl)-7-{4-[(1S,4S)-5-methyl-2,5-diazabicyclo[2.2.1]hept-2-yl]phenyl}-2-pyridin-4-ylpyrazolo[1,5-a]pyrimidine hydrochloride], the IC50 (read-out: Mean IC50) was 0.00024 µM.

Regarding `Fc1cc(N2C[C@@H]3C[C@H]2CN3)ccc1-c1ccnc2c(-c3ccc(F)c4[nH]ncc34)c(-c3ccncc3)nn12` [Example 106, 7-{4-[(1S,4S)-2,5-diazabicyclo[2.2.1]hept-2-yl]-2-fluorophenyl}-3-(7-fluoro-1H-indazol-4-yl)-2-pyridin-4-yl pyrazolo[1 5-a]pyrimidine], the IC50 (read-out: Mean IC50) was less than 0.0003 µM. Same read-out and setting: the value for `CN1C[C@@H]2C[C@H]1CN2c1ccc(-c2ccnc3c(-c4ccc(F)c5[nH]ncc45)c(-c4ccncc4)nn23)c(F)c1` [Example 107, 3-(7-fluoro-1H-indazol-4-yl)-7-{2-fluoro-4-[(1S,4S)-5-methyl-2,5-diazabicyclo[2.2.1]hept-2-yl]phenyl}-2-pyridin-4-ylpyrazolo[1,5-a]pyrimidine] was less than 0.0003 µM; that for `Fc1cc(N2C[C@@H]3C[C@H]2CN3)cc(F)c1-c1ccnc2c(-c3ccc(F)c4[nH]ncc34)c(-c3ccncc3)nn12` [Example 109, 7-{4-[(1S,4S)-2,5-Diazabicyclo[2.2.1]hept-2-yl]-2,6-difluorophenyl}-3-(7-fluoro-1H-indazol-4-yl)-2-pyridin-4-yl pyrazolo[1,5-a]pyrimidine] was less than 0.0003 µM.
